Legend:
intestinal bacteria [1] = assay: Bacterial culture test of mixed stool/test solutions after gas measurement; assay type: cell-based; settings: average; mixed solutions cultured for 48 hours at SCL
Method: Following the measurement of gas concentration as described above, the mixed solutions in the containers were submitted to a laboratory at the Seoul Medical Science Institute (SCL), a CAP accredited and Korean Society for Laboratory Medicine (KSLM)/Laboratory Medicine Foundation accredited institution, where they were cultured for 48 hours and measured for the resulting colony counts.

[2] = scale proposed by Nunes et al. 2008; cited from earlier work
intestinal bacteria [3] = assay: Bacterial culture test, 5% diluted solution of stool from one subject; assay type: cell-based; settings: 10 ml 5% stool suspension + 15 ml test solution
Method: With respect to Example 2 in which xylitol was used as the first cleansing ingredient, in order to test the antibacterial effect of the solution against intestinal bacteria, a 5% diluted solution of stool was prepared from a stool sample obtained from one subject. […] Then, each of these mixed solutions was split in half and submitted to two different testing institutions, the Seoul Medical Science Institute (SCL), which is a CAP accredited and KSLM/Laboratory Medicine Foundation accredited institution, and the Green Cross Laboratories (GC Labs), which is a KSLM accredited institution, for bacterial culture tests.

[4] = 15 g intravenously over 30 minutes twice weekly for four weeks; phase I study 2013; cited from earlier work

OC[C@@H](O)[C@@H](O)[C@H](O)[C@H](O)CO [compound 5, mannitol]
Colony count (intestinal bacteria [1]): 4.0 × 10^8 CFU/mL

OC[C@@H](O)[C@@H](O)[C@H](O)[C@H](O)CO [mannitol]
rate of adequate bowel cleansing [2]: 75%

OC[C@@H](O)[C@H](O)[C@@H](O)CO [Reference Example 6, xylitol]
Colony count (GC Labs) (intestinal bacteria [3]; Green Cross Laboratories): 10.2 × 10^6 CFU/mL
Colony count (SCL) (intestinal bacteria [3]; Seoul Medical Science Institute): 60 × 10^6 CFU/mL

O=C1O[C@H]([C@@H](O)CO)C(O)=C1O [ascorbic acid]
blood ascorbic acid level [4]: at least 350 mg/dL

OC[C@@H](O)[C@@H](O)[C@H](O)[C@@H](O)CO [compound 4, sorbitol]
Colony count (intestinal bacteria [1]): 4.5 × 10^8 CFU/mL

Source: patent US20150342937A1, “BOWEL CLEANSING COMPOSITION” (priority 2013, published 2015)
